Source: ChEMBL document CHEMBL5465560, “Selectivity Literature for EUbOPEN Chemogenomic Library” (2024)
Values belong to the compound of their own block, whether it stands above or below them.

Key:
[1] = tested on: Tyrosine-protein kinase ABL1 (Homo sapiens), P00519 [M351T]; settings: at 10 µM
[2] = target: T1, Serine/threonine-protein kinase Sgk3 (Homo sapiens) (UniProt Q96BR1); assay: Selectivity interaction (KinomeScan (DiscoverX)) EUB0000618a SGK3; settings: at 10 µM
T1 sequence (whole entry): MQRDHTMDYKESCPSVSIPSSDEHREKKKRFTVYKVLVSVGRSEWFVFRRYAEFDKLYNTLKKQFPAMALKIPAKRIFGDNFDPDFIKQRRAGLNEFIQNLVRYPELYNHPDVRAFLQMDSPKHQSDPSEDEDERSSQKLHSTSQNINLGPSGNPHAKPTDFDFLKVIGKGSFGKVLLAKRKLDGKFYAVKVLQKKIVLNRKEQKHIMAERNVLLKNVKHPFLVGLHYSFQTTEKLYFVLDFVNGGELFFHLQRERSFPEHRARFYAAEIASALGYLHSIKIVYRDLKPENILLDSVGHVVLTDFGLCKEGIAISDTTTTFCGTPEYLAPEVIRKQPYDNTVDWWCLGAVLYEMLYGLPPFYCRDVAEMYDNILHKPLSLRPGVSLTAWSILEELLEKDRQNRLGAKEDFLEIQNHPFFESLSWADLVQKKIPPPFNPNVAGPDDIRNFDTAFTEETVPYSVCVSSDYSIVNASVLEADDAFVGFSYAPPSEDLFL

[3] = target: Cyclin-dependent kinase 17 (Homo sapiens) (UniProt Q00537); assay: Selectivity interaction (KinomeScan (DiscoverX)) EUB0000607a CDK17; settings: at 10 µM
Cyclin-dependent kinase 17 (Homo sapiens), sequence (Q00537 whole entry, looked up): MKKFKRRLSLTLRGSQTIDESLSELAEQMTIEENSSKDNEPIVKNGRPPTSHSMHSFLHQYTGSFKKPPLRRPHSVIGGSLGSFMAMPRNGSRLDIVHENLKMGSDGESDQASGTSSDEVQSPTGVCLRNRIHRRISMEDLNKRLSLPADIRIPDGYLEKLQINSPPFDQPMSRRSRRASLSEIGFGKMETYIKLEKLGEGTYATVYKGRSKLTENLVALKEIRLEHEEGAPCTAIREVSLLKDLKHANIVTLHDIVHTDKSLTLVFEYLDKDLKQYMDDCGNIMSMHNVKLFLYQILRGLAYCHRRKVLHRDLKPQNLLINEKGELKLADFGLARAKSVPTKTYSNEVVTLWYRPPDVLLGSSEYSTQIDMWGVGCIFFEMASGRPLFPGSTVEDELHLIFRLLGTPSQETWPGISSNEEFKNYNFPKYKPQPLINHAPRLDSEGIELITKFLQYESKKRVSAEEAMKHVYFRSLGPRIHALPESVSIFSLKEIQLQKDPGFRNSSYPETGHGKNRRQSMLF

[4] = target: Tyrosine-protein kinase Lck (Homo sapiens, UniProt P06239); assay: Selectivity interaction (SelectScreen profiling (Invitrogen)) EUB0000607a LCK; settings: at 2 µM
Tyrosine-protein kinase Lck, sequence (P06239 2-509 limits assumed): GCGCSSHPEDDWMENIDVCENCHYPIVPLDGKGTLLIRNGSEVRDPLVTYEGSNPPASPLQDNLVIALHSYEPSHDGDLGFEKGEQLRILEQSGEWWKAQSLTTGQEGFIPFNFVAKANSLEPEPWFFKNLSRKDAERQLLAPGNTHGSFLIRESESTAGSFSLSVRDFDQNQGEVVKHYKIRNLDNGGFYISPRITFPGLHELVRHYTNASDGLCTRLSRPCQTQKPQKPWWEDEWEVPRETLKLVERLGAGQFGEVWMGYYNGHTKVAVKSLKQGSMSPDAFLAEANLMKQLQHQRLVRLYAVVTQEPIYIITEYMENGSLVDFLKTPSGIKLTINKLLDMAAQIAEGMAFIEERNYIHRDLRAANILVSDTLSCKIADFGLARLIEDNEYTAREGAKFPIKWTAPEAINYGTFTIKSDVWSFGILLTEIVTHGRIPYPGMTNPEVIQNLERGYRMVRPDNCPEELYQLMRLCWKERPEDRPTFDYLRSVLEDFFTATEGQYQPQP

[5] = target: Protein kinase C theta type (Homo sapiens, UniProt Q04759); assay: Selectivity interaction (KinomeScan (DiscoverX)) EUB0001619a PRKCQ; settings: at 1 µM
Protein kinase C theta type, sequence (Q04759 whole entry, looked up): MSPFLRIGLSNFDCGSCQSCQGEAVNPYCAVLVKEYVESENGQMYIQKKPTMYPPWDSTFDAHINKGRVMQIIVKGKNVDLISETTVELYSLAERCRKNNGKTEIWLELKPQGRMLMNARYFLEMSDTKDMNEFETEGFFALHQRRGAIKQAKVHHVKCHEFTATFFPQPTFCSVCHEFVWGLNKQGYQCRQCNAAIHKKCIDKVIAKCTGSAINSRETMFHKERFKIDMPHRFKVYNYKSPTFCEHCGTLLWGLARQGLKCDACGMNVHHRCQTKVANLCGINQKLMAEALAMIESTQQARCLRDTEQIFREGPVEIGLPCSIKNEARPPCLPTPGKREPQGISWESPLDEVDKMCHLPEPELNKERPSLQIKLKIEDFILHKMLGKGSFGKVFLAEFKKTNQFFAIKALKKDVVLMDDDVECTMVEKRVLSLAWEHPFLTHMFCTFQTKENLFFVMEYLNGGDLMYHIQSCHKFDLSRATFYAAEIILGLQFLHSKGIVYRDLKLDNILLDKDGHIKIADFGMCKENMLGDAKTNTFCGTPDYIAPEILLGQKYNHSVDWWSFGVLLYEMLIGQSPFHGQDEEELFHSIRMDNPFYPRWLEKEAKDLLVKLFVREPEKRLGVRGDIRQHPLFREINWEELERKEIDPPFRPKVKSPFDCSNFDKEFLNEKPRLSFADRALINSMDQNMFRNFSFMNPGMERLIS

[6] = target: T2, Dual specificity mitogen-activated protein kinase kinase 6 (Homo sapiens) (UniProt P52564); assay: Selectivity interaction (Kinase panel (KiNativ target engagement assay in Jurkat cells)) EUB0001635a MAP2K6; assay type: cell-based; settings: Selectivity number of off-targets 0.0, Selectivity number of targets 233.0, Source Knowledge https://www.sciencedirect.com/science/article/pii/S2451945619300674?via%3Dihub, at 1 µM
T2 sequence (whole entry): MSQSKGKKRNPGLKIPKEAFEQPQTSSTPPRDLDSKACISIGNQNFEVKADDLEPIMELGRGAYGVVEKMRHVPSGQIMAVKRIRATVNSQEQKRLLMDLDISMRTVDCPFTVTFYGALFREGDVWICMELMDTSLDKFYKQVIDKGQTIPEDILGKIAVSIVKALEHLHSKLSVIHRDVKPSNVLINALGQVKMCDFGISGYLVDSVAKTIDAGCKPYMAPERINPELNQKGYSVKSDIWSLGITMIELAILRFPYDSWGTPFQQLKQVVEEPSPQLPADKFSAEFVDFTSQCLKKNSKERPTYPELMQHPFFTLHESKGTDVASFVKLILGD

[7] = target: T3, NUAK family SNF1-like kinase 2 (Homo sapiens) (UniProt Q9H093); settings: at 10 µM
T3 sequence (whole entry): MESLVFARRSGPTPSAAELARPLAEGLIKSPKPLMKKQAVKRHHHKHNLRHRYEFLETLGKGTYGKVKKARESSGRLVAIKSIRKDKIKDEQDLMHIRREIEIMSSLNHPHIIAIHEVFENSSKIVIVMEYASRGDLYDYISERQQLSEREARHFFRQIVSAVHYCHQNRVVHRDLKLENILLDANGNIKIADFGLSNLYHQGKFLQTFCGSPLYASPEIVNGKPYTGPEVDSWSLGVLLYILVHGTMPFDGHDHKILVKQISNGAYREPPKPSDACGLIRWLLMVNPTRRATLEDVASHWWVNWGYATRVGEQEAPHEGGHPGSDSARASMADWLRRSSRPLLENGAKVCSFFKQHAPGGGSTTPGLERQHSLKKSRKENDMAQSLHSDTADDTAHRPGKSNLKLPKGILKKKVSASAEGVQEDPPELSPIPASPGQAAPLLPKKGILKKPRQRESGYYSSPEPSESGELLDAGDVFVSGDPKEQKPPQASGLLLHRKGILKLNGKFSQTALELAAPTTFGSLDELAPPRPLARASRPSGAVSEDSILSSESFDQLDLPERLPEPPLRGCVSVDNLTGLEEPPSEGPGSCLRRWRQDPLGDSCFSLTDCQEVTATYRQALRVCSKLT

[8] = target: Mitogen-activated protein kinase 1 (Homo sapiens, UniProt P28482); assay: Selectivity interaction (ActivX KiNativ screen (kinase selectivity in THP-1 cell lysates)) EUB0000639a MAPK1; assay type: subcellular; settings: lysate
Mitogen-activated protein kinase 1, sequence (P28482 whole entry): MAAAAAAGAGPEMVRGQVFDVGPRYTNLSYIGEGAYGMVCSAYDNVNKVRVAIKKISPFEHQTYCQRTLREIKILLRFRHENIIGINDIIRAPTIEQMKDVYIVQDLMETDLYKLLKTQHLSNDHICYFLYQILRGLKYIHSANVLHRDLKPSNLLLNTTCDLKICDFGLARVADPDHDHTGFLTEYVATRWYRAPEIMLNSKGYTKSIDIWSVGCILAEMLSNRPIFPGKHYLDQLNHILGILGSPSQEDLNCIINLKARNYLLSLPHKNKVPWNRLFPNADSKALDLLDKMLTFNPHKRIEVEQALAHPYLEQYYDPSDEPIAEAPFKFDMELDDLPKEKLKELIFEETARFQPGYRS

[9] = target: Mitogen-activated protein kinase 9 (Homo sapiens, UniProt P45984); assay: Selectivity interaction (KinomeScan (DiscoverX)) EUB0001049a MAPK9; settings: at 1 µM
Mitogen-activated protein kinase 9, sequence (P45984 whole entry, looked up): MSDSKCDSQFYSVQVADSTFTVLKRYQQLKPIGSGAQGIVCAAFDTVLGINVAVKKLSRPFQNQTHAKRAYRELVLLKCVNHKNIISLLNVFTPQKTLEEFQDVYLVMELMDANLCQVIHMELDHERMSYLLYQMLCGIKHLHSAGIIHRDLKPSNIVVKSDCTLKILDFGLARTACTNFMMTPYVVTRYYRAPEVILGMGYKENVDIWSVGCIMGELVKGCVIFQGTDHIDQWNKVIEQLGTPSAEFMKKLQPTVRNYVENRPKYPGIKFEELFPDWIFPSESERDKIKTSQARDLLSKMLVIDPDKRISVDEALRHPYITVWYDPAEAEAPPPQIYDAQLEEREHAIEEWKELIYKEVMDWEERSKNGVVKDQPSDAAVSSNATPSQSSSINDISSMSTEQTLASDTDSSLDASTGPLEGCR

[10] = target: T4, Hormonally up-regulated neu tumor-associated kinase (Homo sapiens) (UniProt P57058); assay: Selectivity interaction (KinomeScan (DiscoverX)) EUB0001049a HUNK; settings: at 1 µM
T4 sequence (whole entry): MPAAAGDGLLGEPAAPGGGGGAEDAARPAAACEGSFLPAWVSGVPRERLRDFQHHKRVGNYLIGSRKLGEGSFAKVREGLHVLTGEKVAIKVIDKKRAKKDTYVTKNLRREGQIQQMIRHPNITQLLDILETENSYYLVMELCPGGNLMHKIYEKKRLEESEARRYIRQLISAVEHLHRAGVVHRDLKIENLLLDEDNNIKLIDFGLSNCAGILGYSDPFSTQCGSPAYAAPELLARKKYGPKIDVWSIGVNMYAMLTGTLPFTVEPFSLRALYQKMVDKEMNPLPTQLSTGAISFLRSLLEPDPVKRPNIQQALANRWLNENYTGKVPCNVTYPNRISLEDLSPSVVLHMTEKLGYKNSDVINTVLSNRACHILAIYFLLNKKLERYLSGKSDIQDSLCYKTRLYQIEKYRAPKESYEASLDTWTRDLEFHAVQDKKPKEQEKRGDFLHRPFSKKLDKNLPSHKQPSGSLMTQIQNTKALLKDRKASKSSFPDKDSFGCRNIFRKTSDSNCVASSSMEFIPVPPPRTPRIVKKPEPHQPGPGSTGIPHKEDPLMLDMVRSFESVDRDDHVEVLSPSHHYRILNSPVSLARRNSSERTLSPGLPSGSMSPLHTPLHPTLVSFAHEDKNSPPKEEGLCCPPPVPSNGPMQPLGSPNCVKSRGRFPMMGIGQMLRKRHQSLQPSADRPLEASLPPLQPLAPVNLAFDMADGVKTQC

[11] = target: Serine/threonine-protein kinase Nek6 (Homo sapiens) (UniProt Q9HC98); assay: Selectivity interaction (Kinase panel (Z-LYTE Assay)) EUB0001632a NEK6; settings: at 10 µM
Serine/threonine-protein kinase Nek6 (Homo sapiens), sequence (Q9HC98 whole entry): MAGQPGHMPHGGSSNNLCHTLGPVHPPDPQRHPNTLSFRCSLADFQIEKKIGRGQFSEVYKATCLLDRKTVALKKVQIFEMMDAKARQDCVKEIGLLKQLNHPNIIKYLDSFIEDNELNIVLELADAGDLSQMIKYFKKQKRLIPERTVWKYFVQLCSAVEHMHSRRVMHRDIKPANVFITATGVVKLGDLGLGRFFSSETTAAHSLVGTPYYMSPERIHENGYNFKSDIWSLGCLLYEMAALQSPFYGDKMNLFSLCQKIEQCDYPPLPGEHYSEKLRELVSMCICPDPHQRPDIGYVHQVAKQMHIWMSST

- % of control [1]: 100%
Structure (SMILES): CCN(CC)CCCCNc1ncc2cc(-c3cc(OC)cc(OC)c3)c(NC(=O)NC(C)(C)C)nc2n1

Structure (SMILES): O[C@H]1CC[C@H](Nc2ncc3nc(Nc4c(F)cc(F)cc4F)n([C@H]4CCOC4)c3n2)CC1
- % of control [2]: 100%

Structure (SMILES): CNC(=O)Nc1ccc(-c2nc(N3CC4CCC(C3)O4)c3cnn(C4CCC5(CC4)OCCO5)c3n2)cc1
- % of control [3]: 100%
- % of inhibition [4]: 10%

Structure (SMILES): N#Cc1cccc(-c2c[nH]c3ncnc(N4CCOCC4)c23)c1
- % of control [5]: 77%

Structure (SMILES): C=CC(=O)Nc1ccc(C(=O)Nc2[nH]nc3c2CN(C(=O)N[C@H](CN(C)C)c2ccccc2)C3(C)C)cc1
- % of engagement [6]: -2.9%

Structure (SMILES): Cc1cc([C@@H](C)Nc2ccccc2C(=O)O)c2nc(N3CCOCC3)cc(=O)n2c1 [AZD-6482]
- % of control [7]: 84%

- % of inhibition ([8]; at 0.01 µM): -8.4%
- % of inhibition ([8]; at 0.04 µM): -6%
- % of inhibition ([8]; at 0.2 µM): 0.3%
- % of inhibition ([8]; at 1 µM): -16.3%
- % of inhibition ([8]; at 5 µM): -11.6%
Structure (SMILES): CC[C@@H]1[C@H](F)C(=O)N[C@@H]1COc1nccc2cc(C(N)=O)c(OC)cc12 [ZIMLOVISERTIB]

Structure (SMILES): COc1cc(Nc2nc(C)cc(-c3cnn4nc(OC)ccc34)n2)cc(C(F)(F)F)c1
- % of control [9]: 82%
- % of control [10]: 99%

- % of control [11]: 3.78%
Structure (SMILES): Cn1cc(-n2cnc3c(NCc4nc5cc(Cl)c(Cl)cc5[nH]4)nc(N4CCOCC4)nc32)cn1
